Laboratory results as given in ChEMBL document CHEMBL4334471, “Discovery of 1,8-disubstituted-[1,2,3]triazolo[4,5-c]quinoline derivatives as a new class of Hippo signaling pathway inhibitors” (Bioorg Med Chem Lett, 2019).

Columns and labels:
[1] = test system: Tyrosine-protein kinase ABL1 (Homo sapiens), P00519 [Q252H]; assay: Inhibition of human ABL1 Q252H mutant (27 to end residues) assessed as residual activity at 10 uM using EAIYAAPFAKKK as substrate incubated for 40 mins in presence of [gamma-33ATP] by scintillation counting based radiometry assay relative to control
[2] = molecular target: Calcium/calmodulin-dependent protein kinase kinase 1 (Homo sapiens) (UniProt Q8N5S9); assay: Inhibition of recombinant full length human CaMKK1 assessed as residual activity at 10 uM using […] incubated for 40 mins in presence of [gamma-33ATP] by scintillation counting based radiometry assay relative to control
[3] = test system: Serine/threonine-protein kinase Chk2 (Homo sapiens), O96017 [I157T]; assay: Inhibition of recombinant human CHK2 I157T mutant (5 to end residues) assessed as residual activity at 10 uM using KKKVSRSGLYRSPSMPENLNRPR as substrate incubated for 40 mins in presence of [gamma-33ATP] by scintillation counting based radiometry assay relative to control
[4] = molecular target: Citron Rho-interacting kinase (Homo sapiens) (UniProt O14578); assay: Inhibition of recombinant human CRIK assessed as residual activity at 10 uM KKLRRTLSVA as substrate incubated 120 mins in presence of [gamma-33ATP] by scintillation counting based radiometry assay relative to control
[5] = molecular target: Tyrosine-protein kinase CSK (Homo sapiens) (UniProt P41240); assay: Inhibition of recombinant human CSK assessed as residual activity at 10 uM poly(Glu, Tyr) 4:1 as substrate incubated 40 mins in presence of [gamma-33ATP] by scintillation counting based radiometry assay relative to control
[6] = molecular target: Ephrin type-A receptor 4 (Homo sapiens) (UniProt P54764); assay: Inhibition of recombinant human EphA4 (601 to 892 residues) assessed as residual activity at 10 uM using poly(Glu, Tyr) 4:1 as substrate at 40 mins in presence of [gamma-33ATP] by scintillation counting based radiometry assay relative to control
[7] = test system: Receptor tyrosine-protein kinase erbB-2 (Homo sapiens), P04626 [G778D]; assay: Inhibition of recombinant human ERBB2 G778D mutant (676 to end residues) assessed as residual activity at 10 uM using poly(Glu, Tyr) 4:1 as substrate at 40 mins in presence of [gamma-33ATP] by scintillation counting based radiometry assay relative to control
[8] = molecular target: G protein-coupled receptor kinase 6 (Homo sapiens) (UniProt P43250); assay: Inhibition of recombinant full length human GRK6 assessed as residual activity at 10 uM using casein as substrate at 40 mins in presence of [gamma-33ATP] by scintillation counting based radiometry assay relative to control
[9] = test system: Glycogen synthase kinase-3 beta (Homo sapiens), P49841 [UNDEFINED MUTATION]; assay: Inhibition of human GSK-3beta H350L mutant (2 to end residues) assessed as residual activity at 10 uM using phospho GS2 peptide as substrate after 40 mins by [gamma-33ATP] radiometric assay relative to control
[10] = molecular target: Tyrosine-protein kinase HCK (Homo sapiens) (UniProt P08631); assay: Inhibition of human HCK (230 to 497 residues) assessed as residual activity at 10 uM using Cdc2 peptide as substrate after 40 mins by [gamma-33ATP] radiometric assay relative to control
[11] = molecular target: Homeodomain-interacting protein kinase 2 (Homo sapiens) (UniProt Q9H2X6); assay: Inhibition of human HIPK2 (165 to 564 residues) assessed as residual activity at 10 uM using myelin basic protein as substrate after 40 mins by [gamma-33ATP] radiometric assay relative to control
[12] = molecular target: Tyrosine-protein kinase JAK1 (Homo sapiens) (UniProt P23458); assay: Inhibition of human JAK1 (866 to end residues) assessed as residual activity at 10 uM using GEEPLYWSFPAKKK as substrate after 40 mins by [gamma-33ATP] radiometric assay relative to control
[13] = molecular target: Hepatocyte growth factor receptor (Homo sapiens) (UniProt P08581); assay: Inhibition of recombinant human MET A1209G/V1290L mutant (974 to end residues) assessed as residual activity at 10 uM using KKKGQEEEYVFIE as substrate incubated for 40 mins in presence of [gamma-33ATP by scintillation counting based radiometry assay relative to control
[14] = molecular target: Serine/threonine-protein kinase MRCK alpha (Homo sapiens) (UniProt Q5VT25); assay: Inhibition of recombinant human MRCKalpha (1 to 473 residues) assessed as residual activity at 10 uM using KKRNRTLTV as substrate incubated for 40 mins in presence of [gamma-33ATP by scintillation counting based radiometry assay relative to control
[15] = molecular target: Serine/threonine-protein kinase PAK 5 (Homo sapiens) (UniProt Q9P286); assay: Inhibition of recombinant human PAK5 (425 to end residues) assessed as residual activity at 10 uM using RRRLSFAEPG as substrate measured after 40 mins in presence of [gamma33P]ATP by scintillation counting based radiometry assay relative to control
[16] = molecular target: Protein kinase C gamma type (Homo sapiens) (UniProt P05129); assay: Inhibition of recombinant full-length human PKCgamma assessed as residual activity at 10 uM using histone H1 as substrate incubated for 40 mins in presence of [gamma33P]ATP by scintillation counting based radiometry assay relative to control
[17] = test system: Protein kinase C eta type (Homo sapiens), P24723 [UNDEFINED MUTATION]; assay: Inhibition of recombinant human PKCeta V108L/G109R/L392Q mutant (2 to end residues) assessed as residual activity at 10 uM using ERMRPRKRQGSVRRRV as substrate incubated for 40 mins in presence of [gamma33P]ATP by scintillation counting based radiometry assay relative to control
[18] = molecular target: Serine/threonine-protein kinase PLK1 (Homo sapiens) (UniProt P53350); assay: Inhibition of recombinant full-length human Plk1 assessed as residual activity at 10 uM using casein as substrate incubated for 40 mins in presence of [gamma33P]ATP by scintillation counting based radiometry assay relative to control
[19] = molecular target: Protein-tyrosine kinase 2-beta (Homo sapiens) (UniProt Q14289); assay: Inhibition of recombinant human full length PYK2 assessed as residual activity at 10 uM using poly(Glu, Tyr) 4:1 as substrate incubated for 40 mins in presence of [gamma33P]ATP by scintillation counting based radiometry assay relative to control
[20] = molecular target: SRSF protein kinase 2 (Homo sapiens) (UniProt P78362); assay: Inhibition of recombinant human SRPK2 (46 to end residues) assessed as residual activity at 10 uM using RSRSRSRSRSRSRSR as substrate incubated for 40 mins in presence of [gamma33P]ATP by scintillation counting based radiometry assay relative to control
[21] = molecular target: Serine/threonine-protein kinase 25 (Homo sapiens) (UniProt O00506); assay: Inhibition of recombinant human STK25 (1 to 308 residues) assessed as residual activity at 10 uM using RLGRDKYKTLRQIRQ as substrate incubated for 40 mins in presence of [gamma33P]ATP by scintillation counting based radiometry assay relative to control
Sequence of Serine/threonine-protein kinase 25 (Homo sapiens) (O00506 whole entry, looked up, the tested form may be a part): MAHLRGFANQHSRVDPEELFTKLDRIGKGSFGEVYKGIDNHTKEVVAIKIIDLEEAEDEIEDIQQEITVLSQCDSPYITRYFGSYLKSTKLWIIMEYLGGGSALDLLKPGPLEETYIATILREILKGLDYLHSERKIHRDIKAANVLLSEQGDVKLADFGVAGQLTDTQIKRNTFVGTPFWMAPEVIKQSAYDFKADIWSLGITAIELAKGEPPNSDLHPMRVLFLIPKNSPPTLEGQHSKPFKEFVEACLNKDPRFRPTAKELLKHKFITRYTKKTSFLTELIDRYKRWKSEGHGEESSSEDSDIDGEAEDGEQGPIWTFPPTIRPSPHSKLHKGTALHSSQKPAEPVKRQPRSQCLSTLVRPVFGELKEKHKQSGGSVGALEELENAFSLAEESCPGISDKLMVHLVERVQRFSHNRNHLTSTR

Sequence of Serine/threonine-protein kinase MRCK alpha (Homo sapiens) (Q5VT25 whole entry, the tested form may be a part): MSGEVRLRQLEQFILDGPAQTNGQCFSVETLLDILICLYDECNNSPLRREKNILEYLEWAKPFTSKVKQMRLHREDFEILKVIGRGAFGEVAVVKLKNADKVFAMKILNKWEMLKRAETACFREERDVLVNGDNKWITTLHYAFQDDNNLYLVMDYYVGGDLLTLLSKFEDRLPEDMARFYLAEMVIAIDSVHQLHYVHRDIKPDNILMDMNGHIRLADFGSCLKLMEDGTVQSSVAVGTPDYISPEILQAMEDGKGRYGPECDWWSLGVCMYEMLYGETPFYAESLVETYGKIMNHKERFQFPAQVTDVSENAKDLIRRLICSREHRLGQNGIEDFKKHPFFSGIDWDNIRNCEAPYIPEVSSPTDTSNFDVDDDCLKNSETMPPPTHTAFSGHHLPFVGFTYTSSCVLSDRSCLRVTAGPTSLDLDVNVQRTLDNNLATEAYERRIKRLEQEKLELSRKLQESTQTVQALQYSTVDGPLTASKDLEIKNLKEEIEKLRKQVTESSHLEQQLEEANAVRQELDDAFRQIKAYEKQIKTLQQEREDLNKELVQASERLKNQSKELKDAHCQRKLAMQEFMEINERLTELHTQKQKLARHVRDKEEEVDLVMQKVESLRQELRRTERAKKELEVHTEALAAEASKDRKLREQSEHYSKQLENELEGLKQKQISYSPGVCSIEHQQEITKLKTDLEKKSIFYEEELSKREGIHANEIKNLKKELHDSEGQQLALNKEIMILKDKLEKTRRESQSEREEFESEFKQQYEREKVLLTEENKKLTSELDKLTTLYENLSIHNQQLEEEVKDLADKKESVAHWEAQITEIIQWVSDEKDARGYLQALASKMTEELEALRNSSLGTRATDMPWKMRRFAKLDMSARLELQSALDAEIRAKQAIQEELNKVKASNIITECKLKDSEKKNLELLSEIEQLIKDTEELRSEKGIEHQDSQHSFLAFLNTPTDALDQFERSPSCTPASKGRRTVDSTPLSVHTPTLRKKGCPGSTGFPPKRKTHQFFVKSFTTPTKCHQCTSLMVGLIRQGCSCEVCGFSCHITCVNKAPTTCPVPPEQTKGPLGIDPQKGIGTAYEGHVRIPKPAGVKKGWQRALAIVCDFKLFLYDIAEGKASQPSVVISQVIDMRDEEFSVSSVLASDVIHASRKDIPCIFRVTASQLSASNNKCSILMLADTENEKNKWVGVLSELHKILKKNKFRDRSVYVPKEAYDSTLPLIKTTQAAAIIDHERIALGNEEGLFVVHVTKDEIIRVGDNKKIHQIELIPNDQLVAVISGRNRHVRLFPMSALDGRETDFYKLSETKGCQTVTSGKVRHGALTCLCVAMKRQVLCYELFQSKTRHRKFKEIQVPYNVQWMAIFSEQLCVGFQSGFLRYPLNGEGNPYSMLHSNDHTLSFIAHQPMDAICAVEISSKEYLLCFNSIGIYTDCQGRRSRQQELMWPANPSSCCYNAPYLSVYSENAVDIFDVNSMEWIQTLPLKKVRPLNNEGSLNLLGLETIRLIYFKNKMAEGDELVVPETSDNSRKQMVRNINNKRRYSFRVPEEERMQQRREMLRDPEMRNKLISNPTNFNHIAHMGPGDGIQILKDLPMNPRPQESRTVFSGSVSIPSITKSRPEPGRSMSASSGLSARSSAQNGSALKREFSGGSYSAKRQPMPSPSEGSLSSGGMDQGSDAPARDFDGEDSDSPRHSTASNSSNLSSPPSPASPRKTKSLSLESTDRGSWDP
Sequence of Tyrosine-protein kinase CSK (Homo sapiens) (P41240 2-450 limits assumed): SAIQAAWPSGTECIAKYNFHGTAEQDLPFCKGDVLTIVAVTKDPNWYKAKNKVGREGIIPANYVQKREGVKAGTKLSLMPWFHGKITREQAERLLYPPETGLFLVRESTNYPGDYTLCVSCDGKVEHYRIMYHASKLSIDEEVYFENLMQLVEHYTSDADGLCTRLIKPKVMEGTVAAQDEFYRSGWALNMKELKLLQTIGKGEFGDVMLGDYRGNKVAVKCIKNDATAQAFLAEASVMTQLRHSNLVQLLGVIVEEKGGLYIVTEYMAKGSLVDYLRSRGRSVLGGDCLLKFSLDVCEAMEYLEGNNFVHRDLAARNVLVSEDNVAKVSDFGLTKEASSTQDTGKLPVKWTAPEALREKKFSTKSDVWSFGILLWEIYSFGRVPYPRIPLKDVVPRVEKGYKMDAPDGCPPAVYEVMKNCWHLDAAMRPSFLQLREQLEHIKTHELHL
Sequence of Serine/threonine-protein kinase PLK1 (Homo sapiens) (P53350 whole entry): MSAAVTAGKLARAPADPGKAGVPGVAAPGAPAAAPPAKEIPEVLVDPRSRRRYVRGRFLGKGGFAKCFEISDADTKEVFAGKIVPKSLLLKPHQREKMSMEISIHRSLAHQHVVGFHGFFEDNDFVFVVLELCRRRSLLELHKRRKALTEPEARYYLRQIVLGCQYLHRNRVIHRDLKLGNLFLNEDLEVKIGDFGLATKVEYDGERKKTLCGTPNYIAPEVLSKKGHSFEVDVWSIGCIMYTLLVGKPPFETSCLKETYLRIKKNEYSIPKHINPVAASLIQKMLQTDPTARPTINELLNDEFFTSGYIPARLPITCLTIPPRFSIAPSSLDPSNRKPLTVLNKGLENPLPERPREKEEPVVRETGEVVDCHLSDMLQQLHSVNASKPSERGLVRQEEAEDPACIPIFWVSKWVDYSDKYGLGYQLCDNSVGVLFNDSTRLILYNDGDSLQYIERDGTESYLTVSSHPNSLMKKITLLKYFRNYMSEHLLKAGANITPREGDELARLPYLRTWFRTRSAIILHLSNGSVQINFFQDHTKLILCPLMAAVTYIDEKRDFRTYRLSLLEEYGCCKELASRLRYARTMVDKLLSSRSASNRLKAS
Sequence of Ephrin type-A receptor 4 (Homo sapiens) (P54764 whole entry, the tested form may be a part): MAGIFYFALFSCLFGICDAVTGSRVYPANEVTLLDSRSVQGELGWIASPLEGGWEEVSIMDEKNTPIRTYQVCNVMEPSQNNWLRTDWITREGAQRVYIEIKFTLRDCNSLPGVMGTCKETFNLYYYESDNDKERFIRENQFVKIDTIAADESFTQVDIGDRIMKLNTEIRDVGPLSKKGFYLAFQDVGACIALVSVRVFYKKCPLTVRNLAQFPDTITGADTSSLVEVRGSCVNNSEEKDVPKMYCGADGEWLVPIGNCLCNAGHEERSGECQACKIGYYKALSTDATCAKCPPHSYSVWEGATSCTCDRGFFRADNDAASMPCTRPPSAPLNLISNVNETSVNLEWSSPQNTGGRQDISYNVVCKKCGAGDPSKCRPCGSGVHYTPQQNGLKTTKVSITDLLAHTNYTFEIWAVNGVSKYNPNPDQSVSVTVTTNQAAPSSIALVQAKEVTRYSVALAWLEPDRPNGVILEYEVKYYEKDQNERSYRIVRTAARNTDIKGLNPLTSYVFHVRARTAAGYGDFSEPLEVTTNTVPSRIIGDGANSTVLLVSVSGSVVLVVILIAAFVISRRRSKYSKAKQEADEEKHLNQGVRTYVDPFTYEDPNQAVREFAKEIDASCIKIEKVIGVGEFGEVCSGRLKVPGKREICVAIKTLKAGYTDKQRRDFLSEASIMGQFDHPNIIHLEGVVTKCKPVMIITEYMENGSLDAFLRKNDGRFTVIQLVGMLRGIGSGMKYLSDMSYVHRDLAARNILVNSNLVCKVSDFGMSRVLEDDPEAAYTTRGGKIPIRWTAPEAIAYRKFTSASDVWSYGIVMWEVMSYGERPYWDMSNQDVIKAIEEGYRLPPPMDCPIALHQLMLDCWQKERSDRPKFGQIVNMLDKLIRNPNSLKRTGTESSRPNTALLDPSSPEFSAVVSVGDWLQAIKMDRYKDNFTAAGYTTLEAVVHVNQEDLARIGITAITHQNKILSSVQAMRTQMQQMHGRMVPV
Sequence of Protein kinase C eta type (Homo sapiens), P24723 [UNDEFINED MUTATION] (P24723 whole entry, looked up, stated change not applied): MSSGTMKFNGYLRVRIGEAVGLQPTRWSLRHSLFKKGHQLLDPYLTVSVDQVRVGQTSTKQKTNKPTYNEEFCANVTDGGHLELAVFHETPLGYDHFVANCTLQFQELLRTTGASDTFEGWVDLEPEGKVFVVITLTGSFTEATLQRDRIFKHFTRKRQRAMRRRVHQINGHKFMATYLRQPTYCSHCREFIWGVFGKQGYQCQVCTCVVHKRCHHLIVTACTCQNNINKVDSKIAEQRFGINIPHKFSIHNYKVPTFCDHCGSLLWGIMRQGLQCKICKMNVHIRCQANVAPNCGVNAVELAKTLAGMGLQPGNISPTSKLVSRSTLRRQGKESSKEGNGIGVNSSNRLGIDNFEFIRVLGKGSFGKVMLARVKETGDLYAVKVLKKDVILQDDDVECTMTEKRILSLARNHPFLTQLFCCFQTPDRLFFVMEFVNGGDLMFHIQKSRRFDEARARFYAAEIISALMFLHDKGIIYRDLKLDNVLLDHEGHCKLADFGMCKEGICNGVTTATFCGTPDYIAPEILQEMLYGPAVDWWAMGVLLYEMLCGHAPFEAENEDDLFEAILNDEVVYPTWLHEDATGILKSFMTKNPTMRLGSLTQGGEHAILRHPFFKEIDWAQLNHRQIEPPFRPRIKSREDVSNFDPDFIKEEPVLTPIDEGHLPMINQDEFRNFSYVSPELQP

C[C@@H](c1ccccc1)n1nnc2cnc3ccc(-c4cnc5[nH]ccc5c4)cc3c21 showed an Activity [1] of 1%, an Activity [2] of 67% and an Activity [3] of 59%. The Activity [4] was 80%, the Activity [5] was 74% and the Activity [6] was 81%. The Activity [7] was 120%, the Activity [8] was 96% and the Activity [9] was 81%. The Activity [10] was 9%, the Activity [11] was 93% and the Activity [12] was 47%. The Activity [13] was 62%, the Activity [14] was 105% and the Activity [15] was 90%. For the same compound, the Activity [16] was 83%, the Activity [17] was 82% and the Activity [18] was 105%. For the same compound, the Activity [19] was 59%, the Activity [20] was 26% and the Activity [21] was 76%.
